We go through two molecules from ChEMBL document CHEMBL4396934, “Novel α,β-unsaturated hydroxamic acid derivatives overcome cisplatin resistance” (Bioorg Med Chem, 2019).

pKi: −log10 of the molar value. Activity calls are given as the source filed them. No cut-off for these calls is given here.

In assay [1] the target is T1, Protein deacetylase HDAC6 (Homo sapiens, UniProt Q9UBN7).
T1 sequence (Q9UBN7 whole entry): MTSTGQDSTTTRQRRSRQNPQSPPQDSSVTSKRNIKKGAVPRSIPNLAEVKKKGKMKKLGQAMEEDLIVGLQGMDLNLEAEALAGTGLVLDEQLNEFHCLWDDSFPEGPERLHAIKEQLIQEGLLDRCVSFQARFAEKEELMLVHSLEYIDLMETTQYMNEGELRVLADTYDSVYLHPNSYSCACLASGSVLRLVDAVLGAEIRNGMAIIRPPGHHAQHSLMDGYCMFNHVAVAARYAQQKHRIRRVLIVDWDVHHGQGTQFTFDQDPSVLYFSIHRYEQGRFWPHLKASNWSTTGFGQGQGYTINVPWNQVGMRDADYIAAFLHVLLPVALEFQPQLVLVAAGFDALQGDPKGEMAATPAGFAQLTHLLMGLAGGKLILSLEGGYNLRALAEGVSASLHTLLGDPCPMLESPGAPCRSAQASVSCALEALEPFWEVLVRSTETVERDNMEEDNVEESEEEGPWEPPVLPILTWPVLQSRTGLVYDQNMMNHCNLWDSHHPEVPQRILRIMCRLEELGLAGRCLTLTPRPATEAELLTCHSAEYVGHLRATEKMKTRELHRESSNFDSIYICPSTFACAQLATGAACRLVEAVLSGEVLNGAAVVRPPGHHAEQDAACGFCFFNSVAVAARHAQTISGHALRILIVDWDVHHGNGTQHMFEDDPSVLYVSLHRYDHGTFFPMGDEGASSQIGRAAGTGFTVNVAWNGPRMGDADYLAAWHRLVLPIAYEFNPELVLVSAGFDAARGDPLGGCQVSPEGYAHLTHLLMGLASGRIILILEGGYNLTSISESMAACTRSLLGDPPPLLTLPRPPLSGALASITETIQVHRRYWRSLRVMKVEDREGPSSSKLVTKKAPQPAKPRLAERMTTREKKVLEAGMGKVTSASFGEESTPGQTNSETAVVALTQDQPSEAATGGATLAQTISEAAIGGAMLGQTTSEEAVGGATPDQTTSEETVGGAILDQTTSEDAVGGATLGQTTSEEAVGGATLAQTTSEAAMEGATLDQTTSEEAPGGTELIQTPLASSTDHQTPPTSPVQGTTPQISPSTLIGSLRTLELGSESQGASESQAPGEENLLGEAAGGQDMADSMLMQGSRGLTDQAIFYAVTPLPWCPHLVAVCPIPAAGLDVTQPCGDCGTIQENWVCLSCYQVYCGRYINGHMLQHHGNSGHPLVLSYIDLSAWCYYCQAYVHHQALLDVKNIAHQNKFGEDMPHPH
Description: Inhibition of N-terminal GST-tagged recombinant human HDAC6 (1 to 1215 residues) expressed in Baculovirus infected insect cells using Boc-Lys(Ac)-AMC as substrate preincubated for 5 mins followed by substrate addition and further incubation for 90 mins measured after 15 mins by microplate reader based fluorescence assay.

Assay [2] in a line: Potentiation of cisplatin-induced cytotoxicity in human Cal27CisR cells assessed as fold reduction in cisplatin IC50 at 1 uM preincubated for 48 hrs followed by cisplatin addition and further incubation for 72 hrs by MTT assay relative to cisplatin alone. It is filed as functional.
For assay [3], the species on record is Homo sapiens. Description: Induction of apoptosis in human Cal27CisR cells assessed as accumulation at sub-G1 phase at 1 uM after 48 hrs by propidium iodide staining based flow cytometry. It is filed as functional, cell-based.
The target of the next assay is Histone deacetylase. Description: Inhibition of HDAC in human A2780 cells using Boc-Lys(epsilon-Ac)-AMC as substrate preincubated for 18 hrs followed by substrate addition and further incubation for 3 hrs by microplate reader based fluorescence assay. It is filed as cell-based.
For assay [4], the species on record is Homo sapiens. Nature of the assay: Potentiation of cisplatin-induced apoptosis in human Cal27CisR cells assessed as caspase-3/7 activity at 1 uM preincubated for 48 hrs followed by cisplatin addition and further incubation for 24 hrs treated with 20 uM pan capsase inhibitor QVD for 30 mins prior to compound addition by CellEvent caspase 3/7 green detection reagent/Hoechst 33342 staining based arrayscan analysis. The class given is functional, cell-based.

Assay [5] relates to CAL-27. Nature of the assay: Induction of apoptosis in human CAL27 cells assessed as caspase-3/7 activity at 0.5 uM after 48 hrs by CellEvent caspase 3/7 green detection reagent/Hoechst 33342 staining based arrayscan analysis. It is filed as functional, cell-based.
The target in a further assay is Histone deacetylase 2 (Homo sapiens, UniProt Q92769). Nature of the assay: biochemical. The class given is cell-based.
Sequence of Histone deacetylase 2 (Q92769 whole entry): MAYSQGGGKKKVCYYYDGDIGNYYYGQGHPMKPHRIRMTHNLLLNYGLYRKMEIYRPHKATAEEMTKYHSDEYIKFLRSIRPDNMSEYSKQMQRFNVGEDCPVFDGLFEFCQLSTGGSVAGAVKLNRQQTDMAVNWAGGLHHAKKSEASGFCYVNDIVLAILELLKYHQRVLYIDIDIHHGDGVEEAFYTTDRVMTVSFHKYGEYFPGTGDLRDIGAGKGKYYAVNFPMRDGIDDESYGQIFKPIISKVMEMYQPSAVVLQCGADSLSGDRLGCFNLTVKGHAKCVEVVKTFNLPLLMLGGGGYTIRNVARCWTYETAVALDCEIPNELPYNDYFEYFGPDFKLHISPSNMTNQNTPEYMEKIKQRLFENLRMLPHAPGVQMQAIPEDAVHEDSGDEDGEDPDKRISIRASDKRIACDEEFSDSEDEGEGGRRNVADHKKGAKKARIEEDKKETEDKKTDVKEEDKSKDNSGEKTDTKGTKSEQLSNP
Assay [6] relates to CAL-27. Description: Potentiation of cisplatin-induced apoptosis in human CAL27 cells assessed as accumulation at sub-G1 phase at 0.5 uM preincubated for 48 hrs followed by cisplatin addition and further incubation for 24 hrs by propidium iodide staining based flow cytometry (reference value: 11.5 +/- 0.89%). The class given is functional.

Consider `COc1ccc(NC(=O)NOCc2ccc(/C=C/C(=O)NO)cc2)cc1`, for which the results for the pKi (in assay [1]; at Histone deacetylase 2) were 6.92 and 6.82, respectively. The “Ratio IC50” value in assay [2] was found to be 4.76. Also, the result in the assay listed under Homo sapiens [3], in the assay listed under Homo sapiens [4] and in the assay on CAL-27 [5] was inactive. Further, the IC50 against Histone deacetylase was determined as 570 nM. Besides, the Activity in the assay with CAL-27 [6] amounted to 36.7%.

Take `O=C(/C=C/c1ccc(CONC(=O)c2ccc3ccccc3n2)cc1)NO`: the pKi in assay [1] was 7.00; on Histone deacetylase 2, 7.15. The “Ratio IC50” value in assay [2] worked out at 6.86. In addition, the result in the assay filed under Homo sapiens [3], in the assay listed under Homo sapiens [4] and in the assay on CAL-27 [5] was inactive. The molecule further displayed an IC50 against Histone deacetylase of 1540 nM. Besides, in the assay on CAL-27 [6], the Activity is 34.5%.
